{"source": "patent EP0663826B1", "about": "“AMINO ACIDS CONTAINING PARENTERAL FORMULATIONS FOR THE TREATMENT OF HYPOTENSION AND RELATED PATHOLOGIES” (BOARD OF REGENTS THE UNIVERSITY OF TEXAS SYSTEM, priority 1991, dated 1993)", "key": {"[1]": {"tested_on": "nitric oxide synthase in rat aortic smooth muscle cells", "experiment": "Induction and assay of nitrite synthesis in smooth muscle cells", "assay_type": "cell-based", "protocol": "Rat aortic smooth muscle cells were incubated with RPMI-1640 medium containing 10% bovine calf serum, 25 mM HEPES buffer (pH 7.4), 2 mM glutamine, […], and IL-1, IFN-γ, and various inhibitors at the concentrations indicated in the figure legends. At the desired times, nitrite concentration in the culture medium was measured using the standard Griess assay adapted to a 96-well microtiter plate reader.^36 The Griess assay is also described in Gross et al.^37 (1991). Thus, 100 µL of Griess reagent (0.5% sulfanilic acid, 0.05% naphthalenediamine, and 2.5% phosphoric acid) was added to an equal volume of culture medium, and the OD550 was measured and related to nitrite concentration by reference to a standard curve. […]\nRat aortic smooth muscle cells were incubated with RPMI-1640 medium containing 10% bovine calf serum, 25 mM HEPES buffer (pH 7.4), 2mM glutamine, 80 U/mL penicillin, 80 µg/mL streptomycin, 2 µg/mL fungizone, and IL-1, IFN-γ, and various inhibitors at the concentrations indicated in the figure legends. At the desired times, nitrite concentration in the culture medium was measured using the standard Griess assay (Green, L., et al. Anal. Biochem. 126:131-138, 1982) adapted to a 96-well microtiter plate reader (Gross, S.S., et al. Biochem. Biophys. Res. Commun. 178:823-829, 1991). […]"}, "[2]": {"experiment": "Cell respiration assay (MTT)", "assay_type": "cell-based", "details": "rat, aortic smooth muscle cells; read-out: MTT reduction [mean ± SD], of that measured in control cells treated with IL-1 alone", "description": "The extent of reduction of MTT to formazan within cells, quantitated by measurement of the optical density at 550 nm (OD550), was taken as an indicator of cellular respiration."}, "[3]": {"tested_on": "IL-1-Induced Hypotension in Dogs", "experiment": "IL-1-induced hypotension in dogs", "assay_type": "in vivo", "details": "for MAP increase after NAA: NAA 20 mg/kg iv single bolus", "protocol": "• FIGURE 1 - Reversal of hypotension associated with the administration of IL-1 to dogs. The tracing shown is a representative experiment that was repeated four times. Each dog was anesthetized and […] as described herein, and baseline cardiovascular data were monitored for 30 minutes. IL-1 was dissolved in phosphate-buffered saline (pH 7.4) containing 1 mg/ml of dog albumin, and the resulting solution was infused intravenously for three minutes to deliver a dose of 50 µg/kg. MAP was continuously monitored; when a stable nadir was reached and maintained for more than 10 minutes or when MAP dropped below 50 mm Hg, NAA (20 mg/kg in 10 ml phosphate-buffered saline) was administered by intravenous infusion for 30 seconds. Sixty minutes after MAP was restored to baseline or higher values, L-arginine (400 mg/kg in 20 ml phosphate-buffered saline) was administered by slow intravenous infusion for 5 minutes. Anesthetized dogs given IL-1 (50 µg/kg) developed a progressive, moderately severe hypotension, with MAP decreasing from a baseline of 111 +/- 7 mm Hg to 80 +/- 2 mm Hg within about 3 hours. Hypotension was rapidly reversed by the intravenous administration of a single bolus dose of NAA (20 mg/kg, 88 umol/kg), with MAP increasing by from 46 +/- 9 mm Hg (58%_ to 125 +/- 8 mm Hg. • FIGURES 2A, 2B, 2C - Inhibition of IL-1-activated NO· production by N^ω-substituted arginine analogues. Figure 2A: Comparison of nitrite synthesis inhibition in smooth muscle cells by the L-isomers of NAA, NMA, and NNA and by the D-isomer of NMA. Figure 2B: Concentration dependence of nitrite synthesis inhibition in smooth muscle cells by NAA as a function of different L-arginine concentration in the culture medium. Confluent monolayers of smooth muscle cells in 96-well microtiter plates were treated with a combination of 100 ng/ml IL-1 and 50 ng/ml IFN-γ for 24 hours. Cells were then washed with Hanks' balanced salt solution, and fresh medium containing the indicated concentration of L-arginine was added. Points indicate means ± SD of nitrite production, expressed as percent of control, during a 16-hour exposure to arginine analogues (n = 3-4). Figure 2C: Effect of NAA on smooth muscle cell NO· synthase. Cytosol from cytokine-induced smooth muscle cells (∼2 µg protein) was incubated with 1 mM L-arginine, 0.5 mM NADPH, 1 mM dithiothreitol, 10 µM flavin-adenine dinucleotide, 10 µM tetrahydrobiopterin, and 0.1 U/ml dihydropteridine reductase in a total volume of 100 µL. The time course of Fe^2+-myoglobin oxidation was measured in the absence (control) or presence of 300 µM NAA (+NAA). […] FIGURE A: Time course of nitrite synthesis elicited by 40 ng/mL IL-1 alone (open circles) and by IL-1 in the presence of 50 ng/ml IFN-γ (open triangles). […] Inclusion of IL-1 receptor antagonist (40 µg/mL; filled symbols) in the culture medium inhibited nitrite production stimulated by both IL-1 and IL-1 plus IFN-γ. FIGURE B: IL-1 concentration dependence for smooth muscle cell nitrite production. Data points indicate nitrite produced during a 29-hour incubation with the indicated concentration of IL-1 alone (open circles) or in the presence of IL-1 plus 50 ng/mL IFN-γ (open triangles). All values are means ± SD for nitrite production by confluent smooth muscle cell monolayers grown in 96-well microtiter plates (60-80 X 10^3 cells per well; n = 3-4).\nExperiments were conducted on healthy mongrel dogs that were free of microfilaria and weighed 25-28 kg each. […]"}, "[4]": {"tested_on": "Actinomycin D-Treated L929 Cells", "experiment": "Cytolytic activity of rh-TNF against L929 cells", "assay_type": "cell-based, murine", "details": "murine L929 cells", "protocol": "TNF bioactivity was measured by the cytotoxicity towards murine L929 cells, in vitro. […]"}, "[5]": {"tested_on": "hypotension associated with the administration of TNF in the dog", "experiment": "TNF-induced hypotension in the dog", "assay_type": "in vivo, dogs", "details": "dog; Figure 7", "protocol": "Recombinant human TNF, specific activity 2 x 10^7 units/mg, was from the Dainippon Chemical Corporation, Tokyo, Japan. TNF was administered at a dose of 10 µg//kg in a volume of 10 ml of phosphate buffered saline containing 17 mg/ml of dog albumin. […] Arginine was obtained from Sigma Chemical Company, St. Louis, Mo.\nFour conditioned mongrel dogs, 2 males and 2 females, weighing 28 to 30 kg, were studied. Care of the animals were in accordance with the recommendations of the American Association for Accreditation of Laboratory Animals [DHEW(DHHS) publication no. (NIH) 78-23, revised, 1978]. On the day of the experiment, the dogs were fasted overnight. They were anesthetized with phenobarbital (25 mg/kg). The animals were then intubated orally with a #10 fr. endotracheal tube and ventilated with a Harvard pump ventilator at a rate of 14 breaths per minute and a tidal volume of 15 ml/kg. An arterial line was percutaneously placed in the femoral artery on the day of the experiment.\nMean (electronic) and phasic systemic arterial pressures (SAP) were continuously recorded on a Hewlett-Packard recording system (model 7758B) using strain gauge manometers (Hewlett-Packard model 1290A) which were connected to the arterial line. Heart rate (HR) was determined from an EKG tracing and continuously recorded on the Hewlett-Packard recording system. Oxyhemoglobin saturation (SaO2) was obtained using a pulse oximeter (BIOX 111, Boulder, CO). Continuous time-series records of SAP, HR, and SaO2 were obtained using a Lab Master analog-to-digital convertor (16 channel, 12 bit, 30 kHz; Scientific Solutions, Inc.) sampling at 55 Hz and storing the 6 sec averages on a magnetic disk."}, "ET shock (lethal dose)": {"tested_on": "ET shock (lethal dose)", "experiment": "Reversal of ET shock (lethal dose) by multiple doses of NAA", "assay_type": "in vivo", "protocol": "The reversal of ET shock (lethal dose) by Nω-aminoarginine (NAA) for 4 hrs. […] Figure 8 depicts systemic arterial pressure (SAP) versus time (min). ET (2 mg/kg), a lethal dose, was infused over 60 min. and NAA administered at 97, 165, and 374 min. to maintain blood pressure. The animal was survived for 24 hours and then autopsied."}}, "note": "Several values for one entry are separate records, joined by “and”; a condition that tells them apart may be missing. Equal values may be shown once. Read-outs that look alike come from different tables or passages of the source. *1 amine or outer side, *2 acyl side, *3 side chain or, on linkers, in order; H or OH if unused. Where a SMILES comes first, the peptide text is derived from it. Bridges are numbered along the chain shown (N, C = ends). Roman numbers before positions name the chains, in order. [ ]: non-standard residue; d: D form. Actinocin(9to1) = Cc1c2oc3c(C)ccc(C(=O)[*:1])c3nc-2c(C(=O)[*:2])c(N)c1=O; NMeV = CN[C@H](C(=O)O)C(C)C; Sar = CNCC(=O)O", "data": [{"smiles": "C[C@@H]1C[C@@H]([C@H](O)CC2CC(=O)NC(=O)C2)C(=O)[C@@H](C)C1", "note": "[cycloheximide]", "values": [{"measurement": "nitrite produced", "setting": "[1]", "value": "less than 0.1 nmol"}]}, {"smiles": "Cc1c2oc3c(C)ccc(C(=O)N[C@@H]4C(=O)N[C@H](C(C)C)C(=O)N5CCC[C@H]5C(=O)N(C)CC(=O)N(C)[C@@H](C(C)C)C(=O)O[C@@H]4C)c3nc-2c(C(=O)N[C@@H]2C(=O)N[C@H](C(C)C)C(=O)N3CCC[C@H]3C(=O)N(C)CC(=O)N(C)[C@@H](C(C)C)C(=O)O[C@@H]2C)c(N)c1=O", "note": "[dactinomycin] (I: T[dV]P[Sar][NMeV] / II: T[dV]P[Sar][NMeV]; ester I:1-I:C, II:1-II:C; linker I:N-II:N via Actinocin(9to1))", "values": [{"measurement": "viability", "setting": "[2]", "value": 101, "unit": "%"}, {"measurement": "nitrite produced", "setting": "[1]; cells cultured 14 hours with IL-1 (100 ng/mL) and IFN-γ (50 ng/mL) plus 0.5 mg/mL dactinomycin or 1 mg/mL cycloheximide, then 16 hours in cytokine-free medium, control 2.52", "value": "less than 0.1 nmol"}]}, {"smiles": "N=C(NN)NCCC[C@H](N)C(=O)O", "note": "[NAA, N^ω-amino-L-arginine]", "values": [{"measurement": "systemic vascular resistance after injection of NAA, higher than baseline", "setting": "[3]; IL-1-treated dogs, average", "value": 43, "unit": "%"}, {"measurement": "MAP increase after NAA", "setting": "[3]; anesthetized dogs (n = 4) made hypotensive with IL-1 50 µg/kg", "value": "46 ± 9 mm Hg and 46 +/- 9 mm Hg"}, {"measurement": "average increase in MAP above baseline", "setting": "[3]; control dogs not given IL-1, NAA", "value": "20.1 ± 3.8", "unit": "mm Hg"}, {"measurement": "MAP after NAA", "setting": "[3]; dogs given IL-1 50 µg/kg (MAP 80 ± 2 before NAA), NAA 20 mg/kg iv", "value": "125 ± 8 mm Hg and 125 +/- 8 mm Hg"}, {"measurement": "average increase of MAP following NAA above the pre-IL-1 baseline MAP", "setting": "[3]; dogs given IL-1 50 µg/kg, NAA 20 mg/kg", "value": "14.3 ± 7.7", "unit": "mm"}, {"measurement": "MAP increase after NAA", "setting": "[3]; dogs given IL-1 50 µg/kg", "value": 58, "unit": "%"}, {"measurement": "reduction in cardiac output compared with that after IL-1", "setting": "[3]; dogs treated with IL-1, then NAA, P = .037", "value": 25.2, "unit": "%"}, {"measurement": "cardiac output after NAA", "setting": "[3]; dogs treated with IL-1, then NAA, baseline 2.25, P = .204", "value": 1.93, "unit": "L/min"}, {"measurement": "decrease in cardiac output", "setting": "[3]; dogs treated with NAA alone, P = .046", "value": 29.2, "unit": "%"}, {"measurement": "duration physiologically acceptable MAP readings maintained", "setting": "[3]; second and third injections of NAA (20 mg/kg), cytokine-treated dogs", "value": "up to 7 hours"}, {"measurement": "duration MAP maintained at baseline or higher levels", "setting": "[3]; single injections of NAA (20 mg/kg) in cytokine-treated dogs, no L-arginine", "value": "up to 60 minutes"}, {"measurement": "effect on the cytolytic effect of TNF towards tumor cells in vitro", "setting": "[4]", "value": "did not alter"}, {"measurement": "reversing the hypotension associated with TNF administration", "setting": "[5]", "value": "as effective as NMMA"}, {"measurement": "survival of the animal", "setting": "ET shock (lethal dose); ET 2 mg/kg, multiple doses of NAA, then autopsied", "value": 24, "unit": "h"}, {"measurement": "pathological changes in liver, lungs, heart, brain, bowel or kidney", "setting": "ET shock (lethal dose); autopsy after 24 hours", "value": "No pathological changes were observed"}]}]}
